A word on the IC50: it is the point on the concentration scale where inhibition reaches its midpoint.

Entries after “also recorded” stand apart in the source; their conditions may differ.

The target in series [1] is T1, human ER Alpha ligand-binding domain (LBD) (Homo sapiens, UniProt P03372).
T1 construct: purchased Thermo Fisher Scientific
T1 sequence (P03372 311-547 limits assumed): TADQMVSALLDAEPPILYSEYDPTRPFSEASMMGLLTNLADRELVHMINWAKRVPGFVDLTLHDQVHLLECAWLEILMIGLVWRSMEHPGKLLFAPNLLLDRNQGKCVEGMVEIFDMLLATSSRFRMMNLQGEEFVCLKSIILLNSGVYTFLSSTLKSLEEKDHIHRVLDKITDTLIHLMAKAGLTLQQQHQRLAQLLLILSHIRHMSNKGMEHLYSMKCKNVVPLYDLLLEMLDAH
In words: TR-FRET competitive binding assay, ERα LBD. The following applies: displacement of fluorescent tracer from ERα LBD. The text has this: TR-FRET Assay. LanthaScreen® TR-FRET ER Alpha and Beta Competitive Binding Assay kits from Thermo Fisher Scientific were used to perform the TR-FRET assays. These included a terbium-labeled anti-GST antibody, a fluorescent small molecule ER Alpha or Beta ligand as a “tracer”, and a human ER Alpha or Beta ligand -binding domain (LBD) that is tagged with glutathione-S-transferase (GST) in a homogenous mix- and -read assay format.
The TR-FRET assay employs a Tb-anti-GST antibody that binds to a GST tag, and a fluorescently labeled estrogen (tracer) binds in the active site pocket. The TR-FRET signal obtained decreases when competitor compounds displace the fluorescently labeled tracer. Assays were performed according to kit instructions. Briefly, 1:5 dilution series of compounds were made with DMSO, then diluted in assay buffer such that the highest concentration tested in the assay was 50 μM for ERβ and 50 μM for ERα and DMSO was 1%. […] TR-FRET signal was read on a SpectraMax M5 (Molecular Devices) set-up according to Thermo Fisher Scientific machine settings (excitation of 332 nm, emissions 518 nm and 488 nm with a 420 nm cutoff, 50 μs integration delay, 400 μs integration time, and 100 flashes per read). The TR-FRET ratio was calculated using the SoftmaxPro software by dividing the emission at 518 nm (fluorescein) by the emission at 488 nm (Terbium). […]
A general note: Time-resolved FRET reads energy transfer from a long-lived donor to a nearby acceptor.

Series [2] concerns MCF-7 cells. As to the kind of experiment: MTT assay for proliferation of MCF-7 cells. Type of series: cell-based. The following applies: 24 h treatment, 0.001-10 μM. The method, then:
FIGS. 15A-15C. MTT assay for proliferation of MCF-7 cells. Cells were seeded into 96-well plates and incubated for 24 hr before treatment was applied. […] Absorbance values were converted to cell counts using a standard growth curve.
MTT Assays. Human breast cancer cells (MCF-7) were provided by Dr. Manish Patankar (Department of Obstetrics and Gynecology, University of Wisconsin-Madison). Cells were cultured in Eagle's Minimum Essential Media (EMEM) supplemented with 10% fetal bovine serum and 0.01 mg/mL human recombinant insulin in 5% CO2 at 37° C. A seeding density of 7,000 cells per well was chosen and applied to a 96 well plate. […] Treated cells were incubated for 24 hours after which an MTT (3-(4,5-Dimethylthiazol-2-yl)-2,5-Diphenyltetrazolium Bromide) assay was performed by adding 20% MTT in EMEM solution to cach well and incubating for 4 hours. Formazan crystal metabolites were dissolved using 100% DMSO and absorbance was read at OD 570 nm as well as a reference of 650 nm using a VMax kinetic microplate reader (Molecular Devices, CA) running Softmax Pro version 6.1. Absorbances were converted to cell number using a standard growth curve.
Background: Tetrazolium assays rely on reduction of a dye to a coloured formazan, in cell work by metabolically active cells.

The target in series [3] is T2, ERα (Homo sapiens, UniProt P03372).
T2 construct: employs a full length and native ER (comprised of an ER LBD and an ER DBD)
T2 sequence (P03372 1-595): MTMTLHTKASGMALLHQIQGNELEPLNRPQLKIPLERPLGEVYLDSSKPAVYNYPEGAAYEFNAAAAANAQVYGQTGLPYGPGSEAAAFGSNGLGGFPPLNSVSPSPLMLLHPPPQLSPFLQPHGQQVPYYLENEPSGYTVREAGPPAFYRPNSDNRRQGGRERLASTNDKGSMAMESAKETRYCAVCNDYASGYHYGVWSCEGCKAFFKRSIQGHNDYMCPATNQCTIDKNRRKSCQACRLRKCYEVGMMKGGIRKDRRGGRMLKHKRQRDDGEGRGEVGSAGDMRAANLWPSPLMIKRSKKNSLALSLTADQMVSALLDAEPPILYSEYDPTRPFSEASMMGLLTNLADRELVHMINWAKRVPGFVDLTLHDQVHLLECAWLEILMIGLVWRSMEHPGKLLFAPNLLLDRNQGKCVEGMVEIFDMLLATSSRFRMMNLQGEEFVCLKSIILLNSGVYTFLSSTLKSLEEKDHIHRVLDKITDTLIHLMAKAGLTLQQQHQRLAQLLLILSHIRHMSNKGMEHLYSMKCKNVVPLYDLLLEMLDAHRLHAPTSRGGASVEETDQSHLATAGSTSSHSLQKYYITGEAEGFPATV
As to the kind of experiment: Cell-based luciferase reporter assay, full length ERα, antagonist mode. In general terms: A reporter such as luciferase makes a cellular process visible.

The nature of series [4]: Nephelometry (aggregation / solubility).
For series [5], the system named is ovariectomized mice. In words: Bloodwork chemistry and hematology panel. In kind it is in vivo. The following applies: single IP injection, 0.5 or 5 mg/kg. The method, then: FIG. 14. Bloodwork panel for tissue pathology analysis for ISP358-2. Bloodwork hematology analysis was performed by Animal Reference Pathology, LLC in Salt Lake City, Utah (animalreferencepathology.com). Reference ranges are from Charles River Laboratories for CrL: Wi (Han) female 8-16 weck old rats. Blood samples were taken via cardiac puncture at the same time point and treatment conditions as in FIGS. 13A-13M. […] In some cases hemolysis occurred, likely due to the blood collection procedure, which precluded analysis for those samples, thus, samples sizes in the analysis were 6-8. The mean and standard error of the mean of cach group is listed in the table, along with outcomes from one-way ANOVA statistical analysis. […] The hematology samples were analyzed by a Sysmex XT-2000iV using veterinary software and the rat species setting.^3 The reagents for individual assays were sourced from either Seimens, RandOx or Sekisui.

Series [6] concerns ovariectomized mice. In words: Object recognition memory consolidation test.

Consider `OC[C@H]1CC[C@H](c2ccc(O)cc2)CC1` [Compound 16], for which the half-maximal inhibitory concentration (IC50) is 289 ± 92 nM in series [1] and more than 10000 nM in series [3] (inhibition of estradiol-induced transcription, read-out: ERα antagon. IC50). The entries for the “proliferation of MCF-7 cells vs untreated control” value in series [2] and in series [2] (listed as ISP358-2) were “No significant changes in the growth of MCF-7 cells” and “neither ISP358-2 nor DPN showed any significant proliferation”, respectively. In addition, the ERα antagonist activity result in series [3] (concentrations up to 10 μM, listed as ISP358-2) was “No measurable antagonist activity”. Besides, the “solubility / aggregation by nephelometry” value in series [4] is recorded as “reasonably soluble”. Moreover, the “bloodwork chemistry and hematology vs reference ranges” value in series [5] is on record as “do not show significant deviations from expected reference ranges”. The “object recognition: time with novel object / memory consolidation” value in series [6] (IP injection, 0.5 mg/kg, listed as ISP358-2, 0.5 mg/kg) was “exhibited a significant preference for the novel object relative to chance; also recorded: most effectively enhanced consolidation; also recorded: enhanced memory consolidation”; in series [6] (IP injection, 5 mg/kg), “somewhat of a trend for the 5 mg/kg ISP358-2 to prefer the novel object”; in series [6] (dorsal hippocampal infusion, 10 pg/hemisphere, tested 48 h after training, chance 15 s), “Neither the vehicle nor 10 pg ISP358-2 groups showed a preference for the novel object”; in series [6] (dorsal hippocampal infusion, 100 pg/hemisphere, tested 48 h after training, listed as ISP358-2), “spent significantly more time than chance with the novel object; also recorded: enhanced memory consolidation; also recorded: significantly increased time was spent”; in series [6] (dorsal hippocampal infusion, 1 ng/hemisphere, tested 48 h after training, listed as ISP358-2) it was “spent significantly more time than chance with the novel object; also recorded: enhanced memory consolidation; also recorded: significantly increased time was spent”; in series [6] (oral gavage, 0.5 mg/kg, listed as ISP358-2, 0.5 mg/kg), “spent significantly more time with the novel object relative to chance; also recorded: enhanced memory consolidation”. Moreover, in series [6] (oral gavage, 5 mg/kg, listed as ISP358-2, 5 mg/kg), the “object recognition: time with novel object / memory consolidation” value was “spent significantly more time with the novel object relative to chance; also recorded: most effective; also recorded: enhanced memory consolidation”.

The values above are taken from patent publication US20240327421A1 (Marquette University, priority 2017, published 2024).
